Patent US20050112562A1, “Inhibition of retroviral replication through modulation of the host cell ubiquitylation” (Rigel Pharmaceuticals, Inc., priority 2003, published 2005)
Where a SMILES comes first, the peptide text is derived from it. [ ]: non-standard residue; d: D form. The star is where a group is joined. Nle = CCCC[C@H](N)C(=O)O; Cbz = O=C(OCc1ccccc1)*

Columns and labels:
Assay type in all cases: cell-based
[1] = system: vif activity; assay: vif expressed from different vectors with luciferase/apobec3G in a cell (FIGS. 5A-5E); conditions: vif from pCMV, pcDNA6, pcDNA6 CTE, pEF6, pEF6 CTE constructs
[2] = system: vif-mediated degradation of the luciferase/apobec3G fusion protein; assay: transient luciferase/apobec3G fusion reporter with co-introduced vif construct (chemiluminescence, western blot); conditions: Phoenix and HeLa cells; band in final lane of each western blot
Description: A construct encoding a luciferase/apobec3G fusion protein was introduced into Phoenix and HeLa cells and transient expression of the luciferase/apobec3G fusion protein was monitored by detecting chemiluminescence. Results were normalized to the number of cells assayed. […] The gels shown at the top of both FIGS. 3A and 3B show results obtained from western blots of cell extracts using antibodies. Tesults obtained using anti-apobec3G and anti-lactate dehydrogenase antibodies are indicated as “3G” and “LDH”, respectively.
This phenomenon is inhibited by adding MG132, a known inhibitor of proteosome-mediated protein degradation (see the band observed in the final lane of each of the western blots). Cells containing both vif and a luciferase/apobec3G reporter can therefore be used to test agents for vif-inhibitory activity.

[3] = system: vif-mediated degradation of the luciferase/apobec3G fusion protein in HeLa cells; assay: co-transfection of luciferase/apobec3G and vif constructs at varied ratios, luciferase activity (FIG. 4); conditions: for luciferase activity: 10 μM or 20 μM inhibitor, luciferase/apobec3G:vif 50:1 (tested 2:1, 25:1, 50:1, 100:1)
Protocol: Cells were co-transfected with the luciferase/apobec3G and vif constructs at relative concentrations of 2:1, 25:1, 50:1 and 100:1 (luciferase/apobec3G:vif) in the presence or absence of 10 μM or 20 μM MG132 or ALLN, known inhibitors of proteosome-mediated protein degradation.

Compound	modulation of vif activity [1]	vif-caused decrease in luciferase activity / degradation of the luciferase/apobec3G fusion protein [2]	luciferase activity [3]	activity of an apobec3G-luciferase fusion ([3]; in the presence of apobec3G/vif in HeLa cells (FIG. 4 legend))
CC(C)C[C@@H](C=O)NC(=O)[C@H](CC(C)C)NC(=O)[C@H](CC(C)C)NC(=O)OCc1ccccc1 [MG132] (Cbz-Leu-Leu-Leu-aldehyde)	could be modulated	inhibited	maximally increased luciferase activity	increased activity
CCCC[C@@H](C=O)NC(=O)[C@H](CC(C)C)NC(=O)[C@H](CC(C)C)NC(C)=O [ALLN] (Ac-Leu-Leu-[Nle]-aldehyde)			maximally increased luciferase activity	
